Laboratory results from patent publication US20130267532A1, “CYCLIC AMIDE COMPOUNDS AND THEIR USE IN THE TREATMENT OF DISEASE” (priority 2010, published 2013).

Target: T1, hERG current (Homo sapiens, UniProt Q12809)
T1 construct: expressed in transfected cells; host or cells: CHO-K1 cells expressing hERG (Persson et al., J. Cardiovasc. Electrophysiol. 16, 329-341, 2005)
Experiment: hERG analysis Method 2 (IonWorks HT, CHO cells)
Type: cell-based
Settings: hERG-expressing CHO cells, ~21° C., 8-point non-cumulative curves
Method: The hERG-expressing Chinese hamster ovary K1 (CHO) cells described by (Persson, Carlsson, Duker, & Jacobson, 2005) are grown to semi-confluence at 37° C. in a humidified environment (5% CO2) in F-12 Ham medium containing L-glutamine, 10% foetal calf serum (FCS) and 0.6 mg/mL hygromycin (all available from Sigma-Aldrich). Prior to use, the monolayer is washed using a pre-warmed (37° C.) 3 mL aliquot of Versene 1:5,000 (Invitrogen). After aspiration of this solution the flask is incubated at 37° C. in an incubator with a further 2 mL of Versene 1:5,000 for a period of 6 minutes. Cells are then detached from the bottom of the flask by gentle tapping and 10 mL of Dulbecco's Phosphate-Buffered Saline containing calcium (0.9 mM) and magnesium (0.5 mM) (PBS; Invitrogen) is then added to the flask and aspirated into a 15 mL centrifuge tube prior to centrifugation (50 g, for 4 mins). The resulting supernatant is discarded and the pellet gently re-suspended in 3 mL of PBS. A 0.5 mL aliquot of cell suspension is removed and the number of viable cells (based on trypan blue exclusion) is determined in an automated reader (Cedex; Innovatis) so that the cell re-suspension volume can be adjusted with PBS to give the desired final cell concentration. It is the cell concentration at this point in the assay that is quoted when referring to this parameter. […]

T1 sequence (Q12809 whole entry): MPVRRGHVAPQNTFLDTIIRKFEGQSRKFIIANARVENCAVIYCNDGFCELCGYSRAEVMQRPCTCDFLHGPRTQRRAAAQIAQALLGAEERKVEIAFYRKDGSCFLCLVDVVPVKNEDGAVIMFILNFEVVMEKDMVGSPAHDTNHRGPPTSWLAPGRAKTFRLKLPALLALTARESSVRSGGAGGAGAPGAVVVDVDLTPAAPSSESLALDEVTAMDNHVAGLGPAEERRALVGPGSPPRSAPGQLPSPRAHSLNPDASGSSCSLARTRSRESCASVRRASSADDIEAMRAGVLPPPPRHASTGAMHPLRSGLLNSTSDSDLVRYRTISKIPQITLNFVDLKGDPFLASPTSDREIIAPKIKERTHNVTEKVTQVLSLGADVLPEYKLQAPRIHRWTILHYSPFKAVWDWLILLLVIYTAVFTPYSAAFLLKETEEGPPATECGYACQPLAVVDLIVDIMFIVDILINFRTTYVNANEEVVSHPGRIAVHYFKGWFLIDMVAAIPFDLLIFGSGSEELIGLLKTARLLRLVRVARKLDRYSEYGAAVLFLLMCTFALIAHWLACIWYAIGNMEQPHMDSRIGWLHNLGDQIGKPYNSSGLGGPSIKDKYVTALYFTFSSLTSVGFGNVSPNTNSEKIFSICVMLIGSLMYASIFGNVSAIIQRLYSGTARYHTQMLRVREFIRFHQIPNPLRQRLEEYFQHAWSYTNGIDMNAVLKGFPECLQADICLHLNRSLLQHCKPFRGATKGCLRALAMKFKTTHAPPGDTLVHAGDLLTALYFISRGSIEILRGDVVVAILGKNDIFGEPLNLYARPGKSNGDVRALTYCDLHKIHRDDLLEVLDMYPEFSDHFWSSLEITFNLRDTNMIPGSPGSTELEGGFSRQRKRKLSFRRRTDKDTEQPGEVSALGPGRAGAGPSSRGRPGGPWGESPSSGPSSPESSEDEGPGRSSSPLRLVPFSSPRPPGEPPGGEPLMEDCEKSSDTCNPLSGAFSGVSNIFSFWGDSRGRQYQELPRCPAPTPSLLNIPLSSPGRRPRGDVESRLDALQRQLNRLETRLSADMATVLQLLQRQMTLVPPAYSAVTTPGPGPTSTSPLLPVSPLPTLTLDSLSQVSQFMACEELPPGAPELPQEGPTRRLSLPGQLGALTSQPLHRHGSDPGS

| Structure (SMILES) | IC50 |
| --- | --- |
| CCCCCNc1nc(N)nc(C)c1Cc1ccc(N2CCN(C)CC2=O)cc1OC [Example 2, 1-(4-{[2-Amino-4-methyl-6-(pentylamino)pyrimidin-5-yl]methyl}-3-methoxyphenyl)-4-methylpiperazin-2-one] | 5.41 µM |
| CCC[C@@H](CCO)Nc1nc(N)nc(C)c1Cc1ccc(N2CCN(C)CC2=O)cc1OC [Example 3, (S)-1-(4-{[2-Amino-4-(1-hydroxyhexan-3-ylamino)-6-methylpyrimidin-5-yl]methyl}-3-methoxyphenyl)-4-methylpiperazin-2-one] | > 33 µM |
